In article PMC11752523, “Effect of Chirality and Amphiphilicity on the Antimicrobial Activity of Tripodal Lysine-Based Peptides” (ACS Applied Bio Materials, 2025):
Converted amounts (≈) assume the structure as drawn. “Also recorded” adds a separate entry of the source. Where two headings read alike, the source gives them in different places. Numbered stars: 1 amine (or outer) side, 2 acyl side, 3 side chain; on linkers, the order of the positions; unused ones are H or OH. Bridge positions count the residues as written; N and C are the ends. Square brackets hold non-standard residues; d marks the D form. Side chains are listed from the residue outwards. Peptide text beside a SMILES is read from it. * marks the point of attachment. d(εLys) = N[C@H](CCCCN[*:1])C(=O)[*:2]; εLys = N[C@@H](CCCCN[*:1])C(=O)[*:2]; Fmoc = O=C(OCC1c2ccccc2-c2ccccc21)*; X1 = CC[C@H](C)CCCCC(=O)*; Dab = NCC[C@H](N)C(=O)O

Columns and labels:
[1] = tested on: E. coli EDL933 bacterial membrane; assay: Bacteria live/dead (DMAO/EthD-III) staining, fluorescence microscopy; assay type: cell-based, Escherichia coli; details: E. coli EDL933 treated at MBC for 1 h at 37 °C; DMAO green / EthD-III red
Protocol: Dual staining of peptide-treated bacteria, to detect potential membrane disruption,[80] was performed using a bacteria live/dead staining kit (PromoKine). This process involves incubating samples with fluorescent, nucleic acid dyes (DMAO, green, and EthD-III, red) that, respectively, are either able or unable to cross the bacterial membrane. […] Next, they were incubated with set volumes of both dyes for 15 min at room temperature. Slides were mounted using 5 μL of the stained solution onto glass coverslips and observed under a Nikon Eclipse Ti inverted microscope using a 10× objective. Images of different treatments, including controls were captured and compared.
Figure 8 DMAO/EtD-III stained images showing the peptide effects on the integrity of the bacterial membrane. Fluorescence microscopy was used to visualize DMAO and EtD-III dyes binding to the bacterial DNA. In this experiment, E. coli EDL933 was incubated with peptides at their minimum bactericidal concentration (MBC) for 1 h at 37 °C, followed by staining with a bacteria live/dead staining kit (PromoKine). Cells with disrupted membranes are stained red (EtD-III), while cells with intact membranes are stained green (DMAO).

[2] = tested on: E. coli O157:H7 strain EDL933
[3] = tested on: Salmonella enterica serovar Typhimurium; details: 24 h
[4] = tested on: Pseudomonas aeruginosa (NCTC 13437), clinical multidrug-resistant isolate
[5] = tested on: Klebsiella aerogenes; details: 24 h
[6] = Critical aggregation concentration by ANS fluorescence probe assay; assay type: physicochemical; details: emission 486 nm, breakpoint of I/I0 vs log(c/wt %), aqueous solution in ultrapure water, pH 6.5
Protocol: Fluorescence experiments were carried out as described previously.[35]
To determine the CAC value of individual peptides, the results were plotted as I/I0 versus log(c/wt %), where I indicates the maximum fluorescence intensity of ANS at a given sample concentration and I0 denotes the peak intensity for the ANS solution without peptide.
Critical aggregation concentration (CAC) values of the tripodal peptides were obtained from fluorescence probe assays using 8-anilo-1-naphthalenesulfonic acid (ANS).

[7] = Cryo-TEM imaging of self-assembled nanostructure; assay type: physicochemical; details: 1 wt % aqueous solutions, above CAC
Protocol: Imaging was carried out as described previously.[35],[75]
To examine the morphology of the self-assembled nanostructure of these three arm trifunctional peptides, cryo-TEM imaging was performed for 1 wt % solutions, above the measured CAC values. […] In many cases, these structures are deposited on the lacey carbon grid in preference to, or in addition to, the vitrified grid holes.

[8] = tested on: S. aureus (ATCC 12600); details: ATCC 12600, 24 h
[9] = tested on: L929 murine fibroblast cells; assay: MTT cell viability (cytocompatibility) assay; assay type: cell-based; details: L929 murine fibroblasts, after 48 h, n = 3
Protocol: L929 murine fibroblast cells (ECACC General Cell Collection) were grown in Dulbecco’s modified Eagle’s medium (DMEM) supplemented with 10% fetal bovine serum (FBS), 20 mM HEPES, and 1% GlutaMAX. The cells were maintained at pH 7.4, 37 °C, and 5% CO2 in 25 cm^2 cell culture flasks.
Assays were conducted as described previously.[23]
To be of utility as practical antimicrobials, bioactive molecules must show selective activity compared to their toxicity toward mammalian cells. The cytocompatibility of our peptides was investigated by a cell metabolic activity assay using MTT [3-(4,5-dimethylthiazol-2-yl)-2,5-diphenyltetrazolium bromide] assays using L929 murine fibroblast cell lines.
Figure 6 Cell viability data (with L929 murine fibroblasts) of tripodal peptides: (a) TP, (b) DTP, (c) FTP, and (d) FDTP. The error bar corresponds to the standard deviation of the value from the mean (n = 3, *p < 0.05, **p < 0.01 by performing the Anova statistical test).

[10] = tested on: human red blood cells (hRBCs); details: 0.5% (v/v) hRBCs in PBS, peptide 0–0.1 wt %, 1 h, hemoglobin at 414 nm, normalised to 0.1% Triton X-100; mean of three independent experiments
[11] = tested on: E. coli EDL933; assay: SEM imaging of peptide-treated bacteria; assay type: cell-based, Escherichia coli; details: E. coli EDL933, peptide at MBC (31.25 μg/mL), 1 h at 37 °C
[12] = E. coli O157:H7 EDL933, 24 h incubation, 5 × 10^6 CFU/mL, absorbance 600 nm, mean of three independent experiments
[13] = E. coli O157:H7 EDL933, 24 h incubation, aliquots plated on MHA, no viable colonies
[14] = P. aeruginosa NCTC13437, 24 h incubation, 5 × 10^6 CFU/mL, absorbance 600 nm, mean of three independent experiments
[15] = P. aeruginosa NCTC13437, 24 h incubation, aliquots plated on MHA, no viable colonies

For `NCCCC[C@H](NC(=O)[C@H](CCCCN)NC(=O)[C@H](Cc1ccc(O)cc1)NC(=O)[C@H](CCCCNC(=O)[C@H](Cc1ccc(O)cc1)NC(=O)[C@H](CCCCN)NC(=O)[C@@H](N)CCCCNC(=O)OCC1c2ccccc2-c2ccccc21)NC(=O)[C@H](Cc1ccc(O)cc1)NC(=O)[C@H](CCCCN)NC(=O)[C@@H](N)CCCCNC(=O)OCC1c2ccccc2-c2ccccc21)C(N)=O` [FTP, Fmoc-(KKY)3K] (H-K(Fmoc)KYK([Tyr-Lys-εLys-Fmoc])YKK-NH2), the “Effect on integrity of the bacterial membrane (live/dead staining)” value [1] was “rapid, membrane-targeting effects”, the MIC [2, 12] was 62.5 µg/mL (≈ 33.8 µM) and the MBC [2, 13] was 125 µg/mL (≈ 67.6 µM). For the same molecule, the MBC [3] was 500 µg/mL (≈ 271 µM), the MIC [3] was 250 µg/mL (≈ 135 µM) and the MIC [4, 14] was 125 µg/mL (≈ 67.6 µM). For the same molecule, the MBC [4, 15] was 250 µg/mL (≈ 135 µM), the MBC [5] was 62.5 µg/mL (≈ 33.8 µM) and the MIC [5] was 62.5 µg/mL (≈ 33.8 µM). For the same molecule, the “Critical aggregation concentration (CAC)” value [6] was 0.0113 ± 0.005 wt %, the “Morphology of self-assembled nanostructure (cryo-TEM)” value (“Morphology … (cryo-TEM)” below) [7] was “sheet-like structures” and the MBC [8] was 250 µg/mL (≈ 135 µM). It also gave an MIC [8] of 125 µg/mL (≈ 67.6 µM).

With `NCCCC[C@@H](NC(=O)[C@@H](CCCCN)NC(=O)[C@H](Cc1ccc(O)cc1)NC(=O)[C@H](CCCCNC(=O)[C@H](Cc1ccc(O)cc1)NC(=O)[C@@H](CCCCN)NC(=O)[C@H](N)CCCCNC(=O)OCC1c2ccccc2-c2ccccc21)NC(=O)[C@H](Cc1ccc(O)cc1)NC(=O)[C@@H](CCCCN)NC(=O)[C@H](N)CCCCNC(=O)OCC1c2ccccc2-c2ccccc21)C(N)=O` [FDTP, Fmoc-(kkY)3K] (H-[dK](Fmoc)[dK]YK([Tyr-dK-d(εLys)-Fmoc])Y[dK][dK]-NH2) the “Effect on integrity of the bacterial membrane (live/dead staining)” value [1] was “rapid, membrane-targeting effects”, the MIC [2, 12] was 15.62 µg/mL (≈ 8.45 µM) and the MBC [2, 13] was 31.25 µg/mL (≈ 16.9 µM). For the same molecule, the “Cell viability / cytotoxicity (MTT)” value [9] was “death of fibroblasts; also recorded: cytotoxicity at the two highest concentrations studied”, the MBC [3] was 500 µg/mL (≈ 271 µM) and the MIC [3] was 250 µg/mL (≈ 135 µM). For the same molecule, the “Hemolysis of hRBCs” value [10] was “greater leakage of hRBCs”, the “Bacterial surface morphology by SEM” value [11] was “Significant disruption of the surface of the bacteria” and the “Bacterial surface morphology by SEM” value ([11]; listed as FTDP) was “collapsed shapes”. For the same molecule, the MIC [4, 14] was 125 µg/mL (≈ 67.6 µM), the MBC [4, 15] was 250 µg/mL (≈ 135 µM) and the MBC [5] was 62.5 µg/mL (≈ 33.8 µM). For the same molecule, the MIC [5] was 62.5 µg/mL (≈ 33.8 µM), the “Critical aggregation concentration (CAC)” value [6] was 0.0123 ± 0.003 wt % and the “Morphology … (cryo-TEM)” value [7] was “irregular globular aggregates”. For the same molecule, the MBC [8] was 62.5 µg/mL (≈ 33.8 µM) and the MIC [8] was 31.2 µg/mL (≈ 16.9 µM).

`CC[C@H](C)CCCCC(=O)N[C@@H](CCN)C(=O)N[C@H](C(=O)N[C@@H](CCN)C(=O)N[C@H]1CCNC(=O)[C@H]([C@@H](C)O)NC(=O)[C@H](CCN)NC(=O)[C@H](CCN)NC(=O)[C@H](CC(C)C)NC(=O)[C@@H](Cc2ccccc2)NC(=O)[C@H](CCN)NC1=O)[C@@H](C)O` [polymyxin B, reference compound] (X1-[Dab]T[Dab][Dab][Dab][dF]L[Dab][Dab]T; lactam 4-C (inferred); N-terminus assumed) showed an MBC ([2]; O157:H7, 24 h) of 6.25 µg/mL (≈ 5.19 µM), an MIC ([2]; O157:H7, 24 h) of 3.12 µg/mL (≈ 2.59 µM) and an MBC [3] of 12.5 µg/mL (≈ 10.4 µM). It also gave an MIC [3] of 6.25 µg/mL (≈ 5.19 µM), an MBC ([4]; NCTC 13437, 24 h) of 25 µg/mL (≈ 20.8 µM) and an MIC ([4]; NCTC 13437, 24 h) of 6.25 µg/mL (≈ 5.19 µM). For the same molecule, the MBC [5] was 6.25 µg/mL (≈ 5.19 µM), the MIC [5] was 3.12 µg/mL (≈ 2.59 µM) and the MBC [8] was > 100 µg/mL. The MIC [8] was > 100 µg/mL.

In the case of `NCCCC[C@H](NC(=O)[C@H](CCCCN)NC(=O)[C@H](Cc1ccc(O)cc1)NC(=O)[C@H](CCCCNC(=O)[C@H](Cc1ccc(O)cc1)NC(=O)[C@H](CCCCN)NC(=O)[C@@H](N)CCCCN)NC(=O)[C@H](Cc1ccc(O)cc1)NC(=O)[C@H](CCCCN)NC(=O)[C@@H](N)CCCCN)C(N)=O` [TP, (KKY)3K] (H-KKYK([Tyr-Lys-Lys])YKK-NH2), the MIC [2, 12] is reported as > 1000 µg/mL, the MBC [2, 13] is reported as > 1000 µg/mL and the “Cell viability / cytotoxicity (MTT)” value [9] is reported as “nor do they or reduce the viability of fibroblasts”. For the same molecule, the “Hemolysis of hRBCs” value [10] was “did not lyse hRBCs”, the “Critical aggregation concentration (CAC)” value [6] was 0.0065 ± 0.004 wt % and the “Morphology … (cryo-TEM)” value [7] was “irregular globular aggregates”.

For `NCCCC[C@@H](N)C(=O)N[C@H](CCCCN)C(=O)N[C@@H](Cc1ccc(O)cc1)C(=O)NCCCC[C@H](NC(=O)[C@H](Cc1ccc(O)cc1)NC(=O)[C@@H](CCCCN)NC(=O)[C@H](N)CCCCN)C(=O)N[C@@H](Cc1ccc(O)cc1)C(=O)N[C@H](CCCCN)C(=O)N[C@H](CCCCN)C(N)=O` [DTP, (kkY)3K] (H-[dK][dK]YK([Tyr-dK-dK])Y[dK][dK]-NH2), the MIC [2, 12] was 500 µg/mL (≈ 356 µM), the MBC [2, 13] was 1000 µg/mL (≈ 712 µM) and the “Cell viability / cytotoxicity (MTT)” value [9] was “nor do they or reduce the viability of fibroblasts”. The MBC [3] was > 1000 µg/mL, the MIC [3] was > 1000 µg/mL and the “Hemolysis of hRBCs” value [10] was “did not lyse hRBCs”. For the same molecule, the MIC [4, 14] was > 1000 µg/mL, the MBC [4, 15] was > 1000 µg/mL and the “Critical aggregation concentration (CAC)” value [6] was 0.0069 ± 0.002 wt %. For the same molecule, the “Morphology … (cryo-TEM)” value [7] was “irregular globular aggregates”, the MBC [8] was > 1000 µg/mL and the MIC [8] was > 1000 µg/mL.
